Patent publication US10420770B2, “Compositions and methods for treating dementia” (EIP Pharma, LLC, priority 2016, dated 2019)
Where “and” joins values, the source holds several entries; their conditions need not be identical. Equal values may be shown once.

Columns and labels:
[1] = Safety and tolerability, 12-week Phase IIa study (Example 1); assay type: in vivo, human; conditions: 40 mg or 125 mg twice daily, 12 weeks
Method: Investigators and patients were blind to the dosage strength. […] Patients were instructed to take doses within 30 minutes following a meal or snack, with each dose taken approximately 12 hours apart at the same times each day throughout the study.
(§1) Sixteen subjects completed the full 12 weeks of treatment and all were included in safety analyses. […] In the PK analysis, due to the sparse sampling collection design, the time period from 0 to 24 hours post-dose was divided into 4 blocks in order to show the distribution of concentrations over time. […] Average blood concentration of about 8 ng/mL at the 40 mg dose level was observed. This is higher than the 5 ng/mL.

[2] = Brain versus blood exposure in animals (preclinical PK); assay type: in vivo; conditions: brain relative to peripheral blood, read-out: exposure in the brains of animals relative to peripheral blood
[3] = Population pharmacokinetic analyses (Example 1 and Example 2 combined); assay type: in vivo, human; conditions: population PK
Method: as §1

[4] = Plasma and CSF pharmacokinetics, 6-week Phase IIa study (Example 2); assay type: in vivo, human
Method: (§2) Investigators and patients were blinded to the dosage strength. The first 3 patients were randomly assigned to receive either 40 or 125 mg twice daily, with dosing level blinded. The remaining patients (up to 7 patients) received 40 mg twice daily on an open-label basis. […] Patients were instructed to eat a meal approximately 30 minutes before dosing with VX 745 with each dose taken approximately 12 hours (+/−3 hours) apart at the same times each day throughout the study.
(§3) Quantitative EEG was conducted as a measure of the effects of inflammatory cytokines on synaptic function and the effects of modulation of p38 MAPK on synaptic plasticity. Brain fluorodeoxyglucose (FDG) PET scan was conducted at the Screening Visit and Day 40 to measure brain metabolism. In addition, CSF drug levels of VX-745 were obtained to confirm delivery of drug to the brain.

[5] = Safety and tolerability, 6-week Phase IIa study (Example 2); assay type: in vivo, human; conditions: 6 weeks
Method: as §2

interleukin-10 (IL-10) = experiment: CSF cytokine measurement (Mesoscale Discovery), IL-10, 6-week study; assay type: in vivo, human; conditions: day 41; after VX-745 reached Cmax in the plasma
Method: (§4) Cytokine measurements of CSF samples were done to assess the balance of pro-inflammatory versus anti-inflammatory cytokines. The t-helper type 1/t-helper type 2 (TH1/TH2) multiplex cytokine (IFN-γ, IL-1β, IL-2, IL-4, IL-5, IL-8, IL-10, IL-12p70, IL-13, TNFα ) panel by Mescoscale Discovery were utilized to inform on effects on the relative balance of pro-inflammatory cytokines (e.g. IL-1β, TNFα) versus anti-inflammatory cytokines (e.g., IL-10).
(§5) Target engagement was assessed through the evaluation of the effect of drug treatment on CSF biomarkers. CSF was collected at 6 time-points over 24 hours at baseline (the 24 hours prior to first dose) and again at 6 time-points over 24 hours near the end of treatment on Day 40. The samples were evaluated by the Mesoscale Discovery ELISA platform for multiple cytokines ((IFN-γ, IL-1β, IL-2, IL-4, IL-5, IL-8, IL-12 protein 70, IL-13, TNFα, and CSF) and for amyloid-beta peptides (Aβ 38/40/42).

interleukin-8 (IL-8) = experiment: CSF cytokine measurement (Mesoscale Discovery), IL-8, 6-week study; assay type: in vivo, human; conditions: high exposure group by plasma AUC(0-8) on Day 1
Method: as §4, §5

[6] = tested on: patients with mild cognitive impairment (MCI) due to Alzheimer's disease (AD) or with mild AD; experiment: MMSE, 6-week study (Example 2); assay type: in vivo, human; conditions: baseline vs day 40; no statistical analyses
Description: The MMSE is a questionnaire used extensively in clinical and research settings to measure mental function. It is commonly used to screen for dementia, and to assess the severity and progression of dementia. The MMSE is an effective way to document a human subject's response to treatment. The test examines functions including registration, attention and calculation, recall, language, ability to follow simple commands and orientation.
Subjects were men and women between 60-85 years old, having a confirmed diagnosis of MCI due to AD or mild AD (consistent with National Institute of Aging and Alzheimer's Association research diagnostic guidelines) and a Mini-Mental State Examination (MMSE) score greater than 20. Inclusion criteria included gradual and progressive decline in memory function reported by patients or informants over more than 6 months; an amnestic presentation on formal neuropsychological testing that was characterized by a pattern of rapid forgetting, as determined by the PI/subinvestigator; evidence of functional decline as evidenced by a CDR sum of box score of ≥0.5; and MMSE score of 17 to 30, inclusive. […] A total of 9 subjects were enrolled and all were included in safety analysis; 8 subjects completed 6 weeks treatment and were included in pharmacodynamics analysis. […]

[7] = tested on: neurofilament light chain (NFL); experiment: CSF neurofilament light chain (NFL), 6-week study; assay type: in vivo, human; conditions: baseline to day 40
Method: Phospho-tau and NFL proteins from CSF sampling were evaluated as markers of the effects of inflammation on neurodegeneration and axonopathy, respectively.

brain metabolism = experiment: Brain FDG PET scan, 6-week study; assay type: in vivo, human; conditions: baseline to day 40
Method: as §3

[8] = tested on: DS (Down's Syndrome) human fibroblasts; experiment: EEA1-labeled early endosomes in Down's Syndrome human fibroblasts (Example 4); assay type: cell-based; conditions: 0, 1, 10, or 50 nM VX-745 for 24 hours
Description: Down's Syndrome (DS, Trisomy 21) derived human fibroblasts provide a robust system for studying Alzheimer's related endosomal dysfunction as one of the Familial Alzheimer's disease (FAD) genes, Amyloid Precursor Protein (APP), is expressed on chromosome 21 and as a result inherently DS individuals overexpress APP and develop an Alzheimer's type dementia as they grow older beyond age 40 (Jiang, Y, et. al., “Alzheimer's-related endosome dysfunction in Down syndrome is Aβ-independent but requires APP and is reversed by BACE-1 inhibition,” PNAS 107:1630-1635 (2010)).
In vitro, DS human fibroblasts show increased numbers and enlarged early endosomes by electron microscopy or by fluorescence staining with antibodies to EEA1 (Early Endosome Antigen 1). […] After incubation, the cells were fixed and incubated with anti-EEA1 antibody to label early endosomes.

## O=c1ncn2nc(Sc3ccc(F)cc3F)ccc2c1-c1c(Cl)cccc1Cl [VX-745]
[1]
  liver transaminase elevations: No liver transaminase elevations
  serious adverse events: No serious adverse events
  tolerability: well tolerated
[2]
  Kp: ~1.7
[3]; 40 mg dose level
  median 12-hour exposure: 78 ng·h/mL
[3]; 125 mg dose level
  median 12-hour exposure: 116 ng·h/mL
[3]; human, plasma, oral, Examples 1 and 2 combined, read-out: terminal half-life (converted)
  half-life: ~16 h
[4]; 40 mg twice daily
  average blood drug concentration (CAVG): 8 ng/mL
[4]; extrapolated from CSF/plasma and preclinical data
  expected VX-745 concentrations in the brain: ~14 ng/mL and ~30 nM
[4]; human, CSF relative to plasma, oral, same time point, read-out: CSF drug levels as share of plasma drug levels
  Kp: 0.06
[4]; human, oral, 6-week study plasma PK, read-out: terminal half-life (converted)
  half-life: 10 h
[4]; human, plasma, oral, 40 mg twice daily
  Cmax: 23 ng/mL
[5]; 40 mg or 125 mg twice daily
  tolerability: well-tolerated
[5]
  safety concerns: No safety concerns were identified
  safety laboratory and 12-lead ECG parameters: no treatment-related or clinically relevant trends
[5]; 9 subjects
  Most common adverse events: mild dizziness, headache, and somnolence reported in 2 subjects each
interleukin-10 (IL-10)
  CSF IL-10 change from baseline: decreased rapidly
interleukin-8 (IL-8)
  CSF IL-8, Day 41 vs baseline at matched time points: trend towards lower CSF IL-8
[6]
  MMSE individual subject scores: overall trends are encouraging
[7]
  CSF levels of neurofilament light chain (NFL): no change
Brain metabolism
  FDG-PET: no change
[8]
  average number of EEA1-labeled endosomes per DS cell: significantly reduced
  average size of EEA1-labeled endosomes in DS cells: significantly reduced
